Results as given in patent publication US20260092074A1, “Annelated Pyridines as Steroidogenesis Inhibitors, Preparation Method and Use Thereof” (Guangzhou Vinnocent Pharmaceutical Limited, priority 2022, published 2026).

How the values were obtained:
human CYP11B2 = biological target: T1, human CYP11B2 (Homo sapiens, UniProt P19099); test: Inhibition of hCYP11B2 in transfected V79 cells; assay type: cell-based; details: hamster V79 cells expressing human CYP11B2; substrate 11-deoxycorticosterone 200 nM
T1 construct: expressed in transfected cells
T1 sequence (P19099 25-503): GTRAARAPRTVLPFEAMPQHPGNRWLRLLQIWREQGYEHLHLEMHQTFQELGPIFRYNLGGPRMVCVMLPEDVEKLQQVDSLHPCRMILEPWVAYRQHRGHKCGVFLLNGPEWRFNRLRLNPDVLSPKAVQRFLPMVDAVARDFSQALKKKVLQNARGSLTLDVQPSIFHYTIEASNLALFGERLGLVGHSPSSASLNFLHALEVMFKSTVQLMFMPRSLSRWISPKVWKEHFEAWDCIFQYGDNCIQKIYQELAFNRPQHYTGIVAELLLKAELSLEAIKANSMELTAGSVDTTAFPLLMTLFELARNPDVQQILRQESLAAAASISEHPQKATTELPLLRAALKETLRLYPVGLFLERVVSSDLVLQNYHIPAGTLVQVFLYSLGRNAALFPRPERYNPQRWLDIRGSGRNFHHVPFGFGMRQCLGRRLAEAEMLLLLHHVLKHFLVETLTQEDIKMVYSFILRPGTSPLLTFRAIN
Description: (§1) Genes of human CYP11B2 and rat NADPH-P450 reductase were transfected into hamster V79 cells using a lentivirus vector, and stably-expressing cell lines were selected by taking advantages of the associated puromycin-resistance gene. Cultured cells were diluted and seeded in a 96-well plate with an amount of approximately 10,000 per well. After pre-incubation with suitable concentrations of the test compounds for 2 hours, 11-deoxycorticosterone of 200 nM was added as the substrate to initiate the catalytic reaction. After further incubation for 30 minutes, it was quenched with ethyl acetate. Subsequently, the substrate and product(s) were quantified using LC-MS/MS or HPLC at 260 nm, and the IC50 values were calculated according to inhibitory percentage.

human CYP11B1 = biological target: T2, human CYP11B1 (Homo sapiens, UniProt P15538); test: Inhibition of hCYP11B1 in transfected V79 cells; assay type: cell-based; details: hamster V79 cells expressing human CYP11B1; substrate 11-deoxycortisol 200 nM
T2 construct: expressed in transfected cells
T2 sequence (P15538 25-503): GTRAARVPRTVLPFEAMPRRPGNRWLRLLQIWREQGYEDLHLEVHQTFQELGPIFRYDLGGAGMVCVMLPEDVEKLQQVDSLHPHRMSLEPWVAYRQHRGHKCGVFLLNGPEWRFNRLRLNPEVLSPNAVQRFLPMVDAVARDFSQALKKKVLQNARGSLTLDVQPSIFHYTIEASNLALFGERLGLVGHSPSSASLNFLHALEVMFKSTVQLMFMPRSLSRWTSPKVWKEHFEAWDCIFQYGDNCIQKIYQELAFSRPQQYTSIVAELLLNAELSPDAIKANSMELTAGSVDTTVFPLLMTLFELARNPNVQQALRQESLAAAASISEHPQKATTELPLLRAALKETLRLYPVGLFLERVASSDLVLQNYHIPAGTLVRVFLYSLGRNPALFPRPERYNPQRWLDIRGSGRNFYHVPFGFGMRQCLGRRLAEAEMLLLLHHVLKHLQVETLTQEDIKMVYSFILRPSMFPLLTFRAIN
Description: as §1, with “CYP11B1” for “CYP11B2”, “11-deoxycortisol” for “11-deoxycorticosterone”

SMILES	IC50 (human CYP11B2) [nM]	IC50 (human CYP11B1) [nM]
COc1cccc(C2=NOC(S(=O)(=O)N3CCOc4c(-c5ccc(C#N)cc5)cncc43)C2)c1 (stereo not shown) [O100, 4-(4-((3-(3-Methoxyphenyl)-4,5-dihydroisoxazol-5-yl)sulfonyl)-3,4-dihydro-2H-pyrido[4,3-b][1,4]oxazin-8-yl)benzonitrile]	0.3	102
N#Cc1ccc(-c2cncc3c2OCCN3C(=O)CCc2cccc(Cl)c2)cc1 [O50, 4-(4-(3-(3-Chlorophenyl)propanoyl)-3,4-dihydro-2H-pyrido[4,3-b][1,4]oxazin-8-yl) benzonitrile]	5	42
N#Cc1ccc(-c2cncc3c2CCN3S(=O)(=O)c2ccc([N+](=O)[O-])cc2)cc1 [C2, 4-(1-((4-Nitrophenyl)sulfonyl)-2,3-dihydro-1H-pyrrolo[2,3-c]pyridin-4-yl)benzonitrile]	0.12	0.35
N#CC12CC(c3cncc4c3OCCN4C(=O)C3CN(Cc4cccc(F)c4)C3)(C1)C2 [O133, 3-(4-(1-(3-Fluorobenzyl)azetidine-3-carbonyl)-3,4-dihydro-2H-pyrido[4,3-b][1,4]oxazin-8-yl)bicyclo[1.1.1]pentane-1-carbonitrile]	55	4220
CC(C)(C)C(=O)N1CCc2c(-c3ccc(C#N)cc3)cncc21 [C42, 4-(1-Pivaloyl-2,3-dihydro-1H-pyrrolo[2,3-c]pyridin-4-yl)benzonitrile]	45	1570
COc1ccc(S(=O)(=O)N2CCSc3c(-c4ccc(C#N)c(F)c4)cncc32)cc1 [S35, 2-Fluoro-4-(4-((4-methoxyphenyl)sulfonyl)-3,4-dihydro-2H-pyrido[4,3-b][1,4]thiazin-8-yl) benzonitrile]	0.12	0.35
Cc1ccc(C(=O)N2CCc3c(-c4ccc(C#N)cc4)cncc32)cc1 [C33, 4-(1-(4-Methylbenzoyl)-2,3-dihydro-1H-pyrrolo[2,3-c]pyridin-4-yl)benzonitrile]	25	245
N#Cc1ccc(-c2cncc3c2CCN3S(=O)(=O)c2cccc(C#N)c2)cc1 [C16, 3-((4-(4-Cyanophenyl)-2,3-dihydro-1H-pyrrolo[2,3-c]pyridin-1-yl)sulfonyl)benzonitrile]	1.5	0.18
N#Cc1ccc(S(=O)(=O)N2CCSc3c(-c4cc5cc(C#N)ccc5o4)cncc32)cc1 [S42, 2-(4-((4-Cyanophenyl)sulfonyl)-3,4-dihydro-2H-pyrido[4,3-b][1,4]thiazin-8-yl)benzofuran-5-carbonitrile]	0.3	24
N#Cc1ccc2[nH]c(-c3cncc4c3OCCN4C(=O)C3CN(Cc4cccc(F)c4)C3)cc2c1 [O94, 2-(4-(1-(3-Fluorobenzyl)azetidine-3-carbonyl)-3,4-dihydro-2H-pyrido[4,3-b][1,4]oxazin-8-yl)-1H-indole-5-carbonitrile]	4.7	381
N#Cc1ccc(-c2cncc3c2OCCN3S(=O)(=O)c2cccc(Cl)c2)cc1 [O7, 4-(4-((3-Chlorophenyl)sulfonyl)-3,4-dihydro-2H-pyrido[4,3-b][1,4]oxazin-8-yl)benzonitrile]	0.47	0.12
N#Cc1ccc(-c2cncc3c2OCCN3C(=O)c2ccc([N+](=O)[O-])cc2)cc1 [O26, 4-(4-(4-Nitrobenzoyl)-3,4-dihydro-2H-pyrido[4,3-b][1,4]oxazin-8-yl)benzonitrile]	22.4	1450
Cc1cccc(C(=O)N2CCSc3c(-c4ccc(C#N)cc4)cncc32)c1 [S91, 4-(4-(3-Methylbenzoyl)-3,4-dihydro-2H-pyrido[4,3-b][1,4]thiazin-8-yl)benzonitrile]	44	3650
CN1C(=O)CCc2cc(-c3cncc4c3SCCN4S(=O)(=O)c3ccc(C#N)cc3)cc(F)c21 [S52, 4-((8-(8-Fluoro-1-methyl-2-oxo-1,2,3,4-tetrahydroquinolin-6-yl)-2,3-dihydro-4H-pyrido[4,3-b][1,4]thiazin-4-yl)sulfonyl)benzonitrile]	32	697
